Laboratory results taken from patent US8404673B2, “Carbocyclic GlyT1 receptor antagonists” (Hoffmann-La Roche Inc., priority 2009, dated 2013).
Where two headings read alike, the source gives them in different places.

Molecular target: T1, mGlyT-1b (Mus musculus, UniProt P28571)
T1 construct: host or cells: Flp-in-CHO
T1 sequence (P28571 1-651 isoform P28571-2): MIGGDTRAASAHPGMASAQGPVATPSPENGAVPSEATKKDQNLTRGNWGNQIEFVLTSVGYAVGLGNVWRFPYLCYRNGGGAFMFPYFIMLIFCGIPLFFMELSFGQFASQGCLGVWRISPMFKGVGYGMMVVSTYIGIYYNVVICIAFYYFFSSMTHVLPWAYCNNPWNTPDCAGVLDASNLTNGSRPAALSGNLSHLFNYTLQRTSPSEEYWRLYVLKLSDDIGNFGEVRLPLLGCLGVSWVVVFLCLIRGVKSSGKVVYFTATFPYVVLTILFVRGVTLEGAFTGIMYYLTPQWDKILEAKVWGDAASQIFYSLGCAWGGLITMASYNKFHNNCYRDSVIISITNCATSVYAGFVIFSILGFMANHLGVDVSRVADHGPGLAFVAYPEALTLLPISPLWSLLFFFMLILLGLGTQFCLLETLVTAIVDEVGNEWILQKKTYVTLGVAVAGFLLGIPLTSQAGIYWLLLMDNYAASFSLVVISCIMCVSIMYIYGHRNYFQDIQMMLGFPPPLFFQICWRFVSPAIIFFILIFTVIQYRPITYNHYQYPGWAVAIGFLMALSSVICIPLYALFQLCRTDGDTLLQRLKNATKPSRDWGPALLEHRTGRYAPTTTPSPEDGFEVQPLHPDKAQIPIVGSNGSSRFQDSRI
Experiment: Glycine Uptake Inhibition Assay (mGlyT-1b)
Assay type: cell-based

Row | SMILES | IC50 (IC50 data) | IC50 (read-out: IC50 data)
1 | O=C(N[C@H]1CCC[C@H]1N1CCCC1)c1c(C2CC2)cc(C(F)(F)F)cc1C(F)(F)F (relative stereo) [Example 130, 2-Cyclopropyl-N-((cis)-2-pyrrolidin-1-yl-cyclopentyl)-4,6-bis-trifluoromethyl-benzamide] | 35.4 nM | –
2 | COc1cc(C(F)(F)F)cc(C2CC2)c1C(=O)N[C@H]1CCC[C@H]1N1CCCC1 (relative stereo) [Example 131, 2-Cyclopropyl-6-methoxy-N-((cis)-2-pyrrolidin-1-yl-cyclopentyl)-4 trifluoromethyl-benzamide] | 19.9 nM | –
3 | Cc1cc(C(F)(F)F)cc(C)c1C(=O)N[C@H]1CCC[C@H]1N1CCCC1 (relative stereo) [Example 132, 2,6-Dimethyl-N-((cis)-2-pyrrolidin-1-yl-cyclopentyl)-4-trifluoromethyl-benzamide] | 36.5 nM | –
4 | COc1cc(C(F)(F)F)cc(OC(F)F)c1C(=O)N[C@H]1CCC[C@H]1N1CCCC1 (relative stereo) [Example 133, 2-Difluoromethoxy-6-methoxy-N-((cis)-2-pyrrolidin-1-yl-cyclopentyl)-4-trifluoromethyl-benzamide] | 90.8 nM | –
5 | CCc1cc(C(F)(F)F)cc(C(F)(F)F)c1C(=O)N[C@H]1CCC[C@H]1N1CCCC1 (relative stereo) [Example 137, 2-Ethyl-N-((cis)-2-pyrrolidin-1-yl-cyclopentyl)-4,6-bis-trifluoromethyl-benzamide] | 46.2 nM | –
6 | CCc1cc(C(F)(F)F)cc(OC)c1C(=O)N[C@H]1CCC[C@H]1N1CCCC1 (relative stereo) [Example 140, 2-Ethyl-6-methoxy-N-((cis)-2-pyrrolidin-1-yl-cyclopentyl)-4-trifluoromethyl-benzamide] | 55.4 nM | –
7 | COc1cc(C(F)(F)F)cc(SC)c1C(=O)N[C@@H]1CCC[C@@H]1N1CCCC1 (single isomer, unassigned) [Example 58, (−)-2-Methoxy-6-methylsulfanyl-N-(2-pyrrolidin-1-yl-cyclopentyl)-4-trifluoromethyl-benzamide] | 27.6 nM | –
8 | COc1cc(C(F)(F)F)cc(SC)c1C(=O)N[C@@H]1CCC[C@@H]1N1CCCC1 (single isomer, unassigned) [Example 59, (+)-2-Methoxy-6-methylsulfanyl-N-(2-pyrrolidin-1-yl-cyclopentyl)-4-trifluoromethyl-benzamide] | 61.1 nM | –
9 | COc1cc(C(F)(F)F)cc(SC)c1C(=O)N[C@@H]1CCC[C@@H]1NC1CCC1 (single isomer, unassigned) [Example 62, (−)-cis-N-(-2-Cyclobutylamino-cyclopentyl)-2-methoxy-6-methylsulfanyl-4-trifluoromethyl-benzamide] | – | 31.6 nM
10 | COc1cc(C(F)(F)F)cc(SC)c1C(=O)N[C@H]1CCC[C@H]1NC1CCCC1 (single isomer, unassigned) [Example 68, (−)-N-(2-Cyclopentylamino-cyclopentyl)-2-methoxy-6-methylsulfanyl-4-trifluoromethyl-benzamide] | – | 19.4 nM
11 | O=C(N[C@H]1CCC[C@H]1N1CCCC1)c1ccc(C(F)(F)F)cc1C(F)(F)F (single isomer, unassigned) [Example 78, (−)-N-(2-Pyrrolidin-1-yl-cyclopentyl)-2,4-bis-trifluoromethyl-benzamide] | 75.4 nM | –
12 | CSc1cc(C(F)(F)F)ccc1C(=O)N[C@@H]1CCC[C@@H]1N1CCCC1 (single isomer, unassigned) [Example 84, (+)-2-Methylsulfanyl-N-(2-pyrrolidin-1-yl-cyclopentyl)-4-trifluoromethyl-benzamide] | 89 nM | –
13 | CSc1cc(C(F)(F)F)ccc1C(=O)N[C@@H]1CCC[C@@H]1N1CCCC1 (single isomer, unassigned) [Example 85, (−)-2-Methylsulfanyl-N-(2-pyrrolidin-1-yl-cyclopentyl)-4-trifluoromethyl-benzamide] | 60.4 nM | –
14 | CCc1cc(C(F)(F)F)ccc1C(=O)N[C@H]1CCC[C@H]1NC1CCCC1 (single isomer, unassigned) [Example 92, (+)-N-(2-Cyclopentylamino-cyclopentyl)-2-ethyl-4-trifluoromethyl-benzamide] | – | 95.4 nM
